Assay results reported in publication PMC11137198 (Frontiers in Pharmacology, 2024).
Values joined by “and” are separate entries in the source; they are usually repeats but may differ in a detail not shown here. Equal entries are not always repeated. Where two headings read alike, the source gives them in different places. Marks after values point to notes of the source that are not given here.

What was measured:
HAG [1] = tested on: HAG; set-up: species or system human; conditions: binding constant within HAG, PBS
Excerpt: (§1) To calculate the K B values by means of UV absorption spectroscopy, the same Eq. 1 has been applied but using A instead of F.
Competing interactions on mixtures containing the drug and a metabolite in the presence of HAG confirmed the consistency of the determined binding constants.

HAG [2] = biological target: T1, HAG (Homo sapiens, UniProt P02763); format: physicochemical; conditions: HAG-bound; for weight of τ1 component / weight of τ2 component / τ2 / τ1: two-exponential fit; for τ2: long component; for τ1: short component; for λmax (fluorescence): 1:1 (10 μM)
T1 construct: α1-acid glycoprotein from human plasma (HAG) were purchased from Sigma-Aldrich; purchased Sigma-Aldrich; host or cells: human plasma
T1 sequence (P02763 19-201): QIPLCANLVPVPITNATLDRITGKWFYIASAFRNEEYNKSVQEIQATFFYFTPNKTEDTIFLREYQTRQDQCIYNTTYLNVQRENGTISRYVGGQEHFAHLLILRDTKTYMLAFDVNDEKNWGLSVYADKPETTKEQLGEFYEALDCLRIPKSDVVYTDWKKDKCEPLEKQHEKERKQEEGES
Description: (§2) Steady-state fluorescence spectra were recorded on an Edinburgh FS5 spectrofluorometer, provided with a monochromator in the wavelength range of 200–900 nm using an excitation wavelength of 340 nm at room temperature. Measurements on drug@protein complexes were performed in aerated PBS of 1:1 M ratio mixtures at 10 µM. The absorbance of the samples at the excitation wavelength was kept below 0.1. The fluorescence quantum yields were determined using anthracene in ethanol as reference ([Montalti et al., 2006]).
(§3) Time-resolved fluorescence measurements were performed with an EasyLife X system containing a sample compartment composed of an automated peltier cuvette holder to control the temperature at 24°C, a pulsed LED excitation source and a lifetime detector. The employed LED excitation source was 340 nm, with emission filter of WG370. The fluorescence lifetimes (τF) were obtained upon fitting the decay traces by a non-linear fitting/deconvolution procedure F(t) = Σa i ·exp(-t/τ i ) by means of a one- or two-exponential function, depending on the investigated system. All spectroscopic measurements were done in 10 × 10 mm^2 quartz cuvettes at room temperature.
The insets show the normalized spectra. For ligand@protein complexes, solutions were at 1:1 M ratio (10 μM).

[3] = set-up: method as in Tamarit et al., 2021; Tamarit et al., 2022; conditions: cyclohexane, ref Tamarit et al., 2021, 2022; cited from earlier work
HSA [4] = biological target: T2, HSA (Homo sapiens, UniProt P02768); experiment: Binding constant (K B) by modified Scatchard analysis from UV absorption and fluorescence; conditions: binding constant within HSA, PBS
T2 construct: purchased Sigma-Aldrich
T2 sequence (P02768 25-609): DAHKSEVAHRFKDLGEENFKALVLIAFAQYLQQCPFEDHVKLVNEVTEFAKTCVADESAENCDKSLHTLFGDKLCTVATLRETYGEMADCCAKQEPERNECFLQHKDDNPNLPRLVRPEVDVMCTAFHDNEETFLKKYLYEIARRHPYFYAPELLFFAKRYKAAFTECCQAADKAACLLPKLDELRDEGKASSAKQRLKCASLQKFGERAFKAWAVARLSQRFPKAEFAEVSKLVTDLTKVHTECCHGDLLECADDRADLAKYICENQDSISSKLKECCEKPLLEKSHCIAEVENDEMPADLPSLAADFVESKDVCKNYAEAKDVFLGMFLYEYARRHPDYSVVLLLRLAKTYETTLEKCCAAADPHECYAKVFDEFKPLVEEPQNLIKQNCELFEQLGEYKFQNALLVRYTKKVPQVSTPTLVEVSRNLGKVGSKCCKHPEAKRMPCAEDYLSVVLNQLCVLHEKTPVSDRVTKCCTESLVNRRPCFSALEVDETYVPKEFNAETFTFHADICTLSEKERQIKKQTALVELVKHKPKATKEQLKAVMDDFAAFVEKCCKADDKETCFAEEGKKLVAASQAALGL
Description: as §1
An additional point to address is the strength of interaction of the drug and its two metabolites within HSA, since it is key for their transport to the specific targets and for their toxicological activity. […] To this end, a modified Scatchard analysis was performed (Supplementary Figures S6–S8).

HSA and HAG = experiment: Competing interactions in an equimolar mixture of the two proteins (fluorescence); format: binding, human; conditions: fluorescence emission, λexc = 340 nm
HSA [5] = biological target: T2, HSA; conditions: HSA-bound, λexc = 340 nm, PBS; ref 36 (Tamarit et al., 2022); cited from earlier work
cellular milieu = tested on: cellular milieu; set-up: method as in El Ouardi et al., 2023; conditions: UVA light, biological media; ref El Ouardi et al., 2023; cited from earlier work
HSA [6] = biological target: T2, HSA; experiment: Steady-state and time-resolved fluorescence of ligand@HSA complexes; format: physicochemical; conditions: HSA-bound
Description: as §2, §3
FIGURE 2 (A) Fluorescence spectra for GFT-M2 in PBS (gray) and for GFT-M2@HSA (green). […] Measurements were performed at λexc = 340 nm in PBS; for ligand@HSA complexes, solutions were at 1:1 M ratio (10 μM).

[7] = Fluorescence of free ligand in organic solvents or PBS; format: physicochemical
Description: as §2, §3
An important point to discuss is the low fluorescence yield value of GFT-M2 within the protein cavities (ϕF ∼ 0.01) compared with that obtained in cyclohexane (ϕF ∼ 0.13). […] It is worth to mention that this is a dynamic process that lowers τF values ([Tamarit et al., 2021]; [Tamarit et al., 2022]). With the aim of investigating this possibility for GFT-M2, fluorescence measurements were performed in the non-polar solvent toluene in the presence of increasing amounts of Tyr and Trp (due to solubility requirements, the N-acetyl methyl ester amino acid derivatives, namely, NAc-TyrMe or NAc-TrpMe, were used). […] It is worth to mention that using either Tyr or Trp as quenchers, a new band with λmax ∼ 490 nm arose at high amino acid concentrations (insets of Figure 3); this is attributed to emission from phenolate-like species involving interaction between hydrogen-bonded GFT-M2 and Tyr (or Trp) in the ground state. However, and as discussed above, these species have not been observed in the supramolecular GFT-M2@HSA complex, since LE states predominate. Therefore, it would exist an additional deactivation route for ^1GFT-M2* within the protein, which would be strongly affected by the conformational arrangement of the metabolite in the binding sites (see the discussion on MD simulations).

[8] = λexc = 340 nm, PBS, 1:1 (10 μM)

Row | SMILES | K B (HAG [1]) | ϕF (HAG [2]; λexc = 340 nm, PBS) | K B (HSA [4]) | weight of τ1 component (HAG [2]) | weight of τ2 component (HAG [2]) | τ2 (HAG [2]) | τ1 (HAG [2]) | λmax (fluorescence) (HAG [2]; λexc = 340 nm, PBS) | phototoxicity (cellular milieu) | further results
1 | COc1cc2ncnc(Nc3ccc(F)c(Cl)c3)c2cc1OCCCN1CCOCC1 [GFT, gefitinib, reference compound] | 1.2 × 10^5 M^-1 and 1.2 ± 0.08 × 10^5 M^-1 | 0.03 | – | – | – | – | – | – | – | τF (HAG [2]; λexc = 340 nm, PBS, one-exponential fit, or mean lifetime where marked d): 0.8 ns; ϕF [3]: ~0.19
2 | COc1cc2ncnc(Nc3ccc(F)c(Cl)c3)c2cc1O [GFT-M1, O-desmorpholinopropyl gefitinib] | 9.1 ± 0.32 × 10^4 M^-1 | 0.04 | 1.2 ± 0.06 × 10^5 M^-1 | 28% | 72% | ~3.1 ns | ~0.5 ns | ~442 nm | highest phototoxicity | relative affinity in equimolar mixture of HSA and HAG (HSA and HAG): higher affinity to HSA; τF (HSA [5]): 2.5 ^b ns; ϕF (HSA [5]): 0.15 ^b
3 | Oc1cc2ncnc(Nc3ccc(F)c(Cl)c3)c2cc1OCCCN1CCOCC1 [GFT-M2, O-desmethyl gefitinib] | 1.5 × 10^5 M^-1 and 1.5 ± 0.05 × 10^5 M^-1 | 0.03 | 1.8 ± 0.16 × 10^5 M^-1 | 35% | 65% | 4.1 ns | 0.7 ns | ~446 nm | much less phototoxic | weight of τ1 component (HSA [6]; two-exponential fit): 75%; weight of τ2 component (HSA [6]; two-exponential fit): 25%; τ2 (HSA [6]; two-exponential fit, long component): 4.9 ns; τ1 (HSA [6]; two-exponential fit, short component): 0.6 ns; λmax (fluorescence) (HSA [6]; [8]): ~388 nm; ϕF (HSA [6]; [8]): ~0.01; τF (HSA [6]; λexc = 340 nm, PBS, mean lifetime <τF> = a1τ1 + a2τ2): 1.0^d ns; shoulder detected in the fluorescence spectrum (HAG [2]; λexc = 340 nm, PBS, value between brackets): ~388 nm; ϕF ([7]; cyclohexane): ~0.13; fluorescence maximum ([7]; free in the bulk solution (PBS), λexc = 340 nm): ca. 440 nm; fluorescence maximum λmax ([7]; non-polar solvents): ca. 390 nm; λmax of new band at high amino acid concentrations ([7]; toluene, Tyr or Trp as quenchers, phenolate-like species): ~490 nm; fluorescence lifetime of the LE singlet state ([7]; toluene, with NAc-TyrMe or NAc-TrpMe at molar ratios 1:50 to 1:300): ca. 2.42 ns
